Measurements: US8853258B2, “C-linked hydroxamic acid derivatives useful as antibacterial agents” (Pfizer Inc., priority 2009, dated 2014)
In brackets after ≈: the same amount, converted by molar mass. Read-outs that look alike come from different tables or passages of the source.

Experiments:
Assay type in all cases: cell-based
[1] = tested on: Klebsiella pneumoniae: Ciprofloxacin-resistant isolate, ESBL, clinical isolate (KP-3700); assay: MIC determination (CLSI), KP-3700
Outline: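 MIC measured by broth dilution according to CLSI M7-A7 and M100-S18 standards. Test organism was a ciprofloxacin-resistant, ESBL-expressing clinical isolate.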

[2] = tested on: Escherichia coli EC-1: VOGEL, mouse virulent; assay: MIC determination (CLSI), EC-1; conditions: for MIC: Escherichia coli
Outline: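 E. coli Vogel, a mouse-virulent strain (EC-1), was tested. MICs were set by dilution susceptibility testing per CLSI standards M7-A7/M100-S18.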

[3] = tested on: Acinetobacter baumanii/haemolyticus: Multidrug-resistant clinical isolate (AB-3167); assay: MIC determination (CLSI), AB-3167; conditions: for MIC: Acinetobacter baumannii
Outline: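 Multidrug-resistant clinical isolate AB-3167 (A. baumannii/haemolyticus) tested for minimum inhibitory concentration following CLSI dilution susceptibility standards M7-A7 and M100-S18.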

[4] = tested on: Pseudomonas aeruginosa UI-18: Wild-type (PA-7); assay: MIC determination (CLSI), PA-7; conditions: for MIC: Pseudomonas aeruginosa
Outline: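 MIC by dilution method per CLSI M7-A7 and M100-S18 guidelines. Strain: wild-type Pseudomonas aeruginosa UI-18.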

[5] = Escherichia coli EC-1 VOGEL, mouse virulent
[6] = Acinetobacter baumanii/haemolyticus multidrug-resistant clinical isolate AB-3167
[7] = Pseudomonas aeruginosa UI-18 wild-type PA-7
[8] = Acinetobacter baumanii/haemolyticus AB-3167
[9] = Pseudomonas aeruginosa UI-18 (PA-7)
[10] = Table 1, MIC, read-out: AB-3167 (MIC)
[11] = Table 1, MIC, read-out: PA-7 (MIC)

Row | SMILES | KP-3700 MIC [1] | EC-1 MIC [2, 5] | AB-3167 MIC [3, 6] | PA-7 MIC [4, 7] | further results
1 | CS(=O)(=O)C(CCc1ccc(-c2ccc(C#N)cc2)cc1)C(=O)NO (centres unmarked) [Example 28] | ≧64 mg/L | 32 µg/mL | ≧64 mg/L | 2 µg/mL | –
2 | CC(CCc1ccc(-c2ccc(OCCN)cc2)cc1)(C(=O)NO)S(C)(=O)=O (centres unmarked) [Example 116] | ≧64 mg/L | ≧64 mg/L | ≧64 mg/L | 4 µg/mL | –
3 | CNC(=O)c1ccc(-c2ccc(CCC(C)(C(=O)NO)S(C)(=O)=O)cc2)cc1 (racemic) [Example 85] | ≧64 mg/L | 32 µg/mL | ≧64 mg/L | 16 µg/mL | –
4 | CC(CCc1ccc(-c2cncnc2)cc1)(C(=O)NO)S(C)(=O)=O (racemic) [Example 80] | 32 µg/mL | 8 µg/mL | ≧64 mg/L | 8 µg/mL | –
5 | C[C@@](CCc1ccc(-c2cc3ccccc3o2)cc1)(C(=O)NO)S(C)(=O)=O [Example 214] | 4 µg/mL | – | – | – | EC-1 MIC ([2]; Escherichia coli EC-1): 0.125 µg/mL; AB-3167 MIC [3, 8]: 8 µg/mL; PA-7 MIC [4, 9]: 8 µg/mL
6 | COc1cccc(-c2ccc(CCC(C)(C(=O)NO)S(C)(=O)=O)cn2)c1F (centres unmarked) [Example 134] | 16 µg/mL | 4 µg/mL | ≧64 mg/L | 4 µg/mL | –
7 | CC(CCc1ccc(-c2cnc(N3CCOCC3)nc2)cc1)(C(=O)NO)S(C)(=O)=O (centres unmarked) [Example 39] | 32 µg/mL | 4 µg/mL | ≧64 mg/L | ≧64 mg/L | –
8 | COc1ccc(F)c(-c2noc(COc3ccc(CCC(C)(C(=O)NO)S(C)(=O)=O)cc3)n2)c1 (centres unmarked) [Example 259, 4-(4-{[3-(2-fluoro-5-methoxyphenyl)-1,2,4-oxadiazol-5-yl]methoxy}phenyl)-N-hydroxy-2-methyl-2-(methylsulfonyl)butanamide] | ≧64 mg/L | – | – | – | MIC ([2]; read-out: EC-1 MIC): 16 µg/mL (≈ 32.4 µM); MIC ([3]; Table 3, read-out: AB-3167 MIC): ≥ 64 µg/mL; MIC ([4]; Table 3, read-out: PA-7 MIC): ≥ 64 µg/mL
9 | COc1cccc(-c2ccc(CCC(C)(C(=O)NO)S(C)(=O)=O)cc2)c1F (racemic) [Example 89] | 1 µg/mL | 0.5 µg/mL | 16 µg/mL | 0.5 µg/mL | –
10 | CC(CCc1ccc(OCc2cccc(F)c2)cc1)(C(=O)NO)S(C)(=O)=O (centres unmarked) [Example 268, 4-{4-[(3-fluorobenzyl)oxy]phenyl}-N-hydroxy-2-methyl-2-(methylsulfonyl)butanamide] | 8 µg/mL | – | – | – | MIC ([2]; read-out: EC-1 MIC): 2 µg/mL (≈ 5.06 µM); MIC ([3]; Table 3, read-out: AB-3167 MIC): 16 µg/mL (≈ 40.5 µM); MIC ([4]; Table 3, read-out: PA-7 MIC): 8 µg/mL (≈ 20.2 µM)
11 | CC(CCc1ccc(OCCc2ccccc2)cc1)(C(=O)NO)S(C)(=O)=O (centres unmarked) [Example 271, N-hydroxy-2-methyl-2-(methylsulfonyl)-4-[4-(2-phenylethoxy)phenyl]butanamide] | ≧64 mg/L | – | – | – | MIC ([2]; read-out: EC-1 MIC): 16 µg/mL (≈ 40.9 µM); MIC ([3]; Table 3, read-out: AB-3167 MIC): 32 µg/mL (≈ 81.7 µM); MIC ([4]; Table 3, read-out: PA-7 MIC): ≥ 64 µg/mL
12 | COc1cc(CCC(C)(C(=O)NO)S(C)(=O)=O)ccc1-c1ccc(F)cc1 (centres unmarked) [Example 20, 4-(4′-Fluoro-2-methoxybiphenyl-4-yl)-N-hydroxy-2-methyl-2-(methylsulfonyl)butanamide] | 8 µg/mL | – | – | – | MIC ([2]; read-out: EC-1: (MIC)): 1 µg/mL (≈ 2.53 µM); MIC [3, 10]: ≥ 64 µg/mL; MIC [4, 11]: 16 µg/mL (≈ 40.5 µM)
13 | CC(CCc1ccc(-c2ccc(OCCCN)cc2)cc1)(C(=O)NO)S(C)(=O)=O (centres unmarked) [Example 117] | ≧64 mg/L | ≧64 mg/L | ≧64 mg/L | 8 µg/mL | –
14 | CC(CCc1ccc(OC2CCCCC2)cc1)(C(=O)NO)S(C)(=O)=O (centres unmarked) [Example 238, 4-[4-(cyclohexyloxy)phenyl]-N-hydroxy-2-methyl-2-(methylsulfonyl)butanamide] | ≧64 mg/L | – | – | – | MIC ([2]; read-out: EC-1 MIC): 32 µg/mL (≈ 86.6 µM); MIC ([3]; Table 3, read-out: AB-3167 MIC): 32 µg/mL (≈ 86.6 µM); MIC ([4]; Table 3, read-out: PA-7 MIC): 8 µg/mL (≈ 21.7 µM)
15 | COC(C)c1ccc(-c2ccc(CCC(C)(C(=O)NO)S(C)(=O)=O)cc2)cc1 (mixture of isomers) [Example 71] | 16 µg/mL | 4 µg/mL | 32 µg/mL | 4 µg/mL | –
16 | CC(CCc1ccc(-c2ccc(C#N)c(C#N)c2)cc1)(C(=O)NO)S(C)(=O)=O (centres unmarked) [Example 125] | 32 µg/mL | 8 µg/mL | ≧64 mg/L | 4 µg/mL | –
17 | CC(CCc1ccc(-c2ccc3c(c2)CCO3)cc1)(C(=O)NO)S(C)(=O)=O (racemic) [Example 74] | 4 µg/mL | 1 µg/mL | 16 µg/mL | 1 µg/mL | –
18 | COc1ccc(-c2ccc(CCC(C)(C(=O)NO)S(C)(=O)=O)cn2)cc1 (centres unmarked) [Example 120] | 16 µg/mL | 4 µg/mL | ≧64 mg/L | 8 µg/mL | –

Row | SMILES | KP-3700 MIC [1] | EC-1 MIC [2, 5] | AB-3167 MIC [3, 6] | PA-7 MIC [4, 7] | further results
19 | CC(CCc1ccc(OCc2ccc3ccccc3n2)cc1)(C(=O)NO)S(C)(=O)=O (centres unmarked) [Example 279, N-hydroxy-2-methyl-2-(methylsulfonyl)-4-[4-(quinolin-2-ylmethoxy)phenyl]butanamide] | ≧64 mg/L | – | – | – | MIC ([2]; read-out: EC-1 MIC): 16 µg/mL (≈ 37.3 µM); MIC ([3]; Table 3, read-out: AB-3167 MIC): ≥ 64 µg/mL; MIC ([4]; Table 3, read-out: PA-7 MIC): ≥ 64 µg/mL
20 | CC(CCc1ccc(-c2ccccc2O)nc1)(C(=O)NO)S(C)(=O)=O (centres unmarked) [Example 143] | 32 µg/mL | 4 µg/mL | ≧64 mg/L | 4 µg/mL | –
21 | CC(C)c1ccc(-c2ccc(CCC(C)(C(=O)NO)S(C)(=O)=O)cc2)cc1 (centres unmarked) [Example 102] | 8 µg/mL | 2 µg/mL | 4 µg/mL | 4 µg/mL | –
22 | Cc1ccc(-c2ccc(CCC(C)(C(=O)NO)S(C)(=O)=O)cc2)o1 (centres unmarked) [Example 99] | 32 µg/mL | 16 µg/mL | ≧64 mg/L | 8 µg/mL | –
23 | CC(CCc1ccc(-c2ccccc2C#N)cc1)(C(=O)NO)S(C)(=O)=O (centres unmarked) [Example 105] | 32 µg/mL | 8 µg/mL | ≧64 mg/L | 16 µg/mL | –
24 | CC(CCc1ccc(-c2ccc(F)c(F)c2)cc1)(C(=O)NO)S(C)(=O)=O (racemic) [Example 75] | 4 µg/mL | 1 µg/mL | 8 µg/mL | 0.5 µg/mL | –
25 | Cc1ccc(COc2ccc(CCC(C)(C(=O)NO)S(C)(=O)=O)cc2)cc1 (centres unmarked) [Example 263, N-hydroxy-2-methyl-4-{4-[(4-methylbenzyl)oxy]phenyl}-2-(methylsulfonyl)butanamide] | 8 µg/mL | – | – | – | MIC ([2]; read-out: EC-1 MIC): 2 µg/mL (≈ 5.11 µM); MIC ([3]; Table 3, read-out: AB-3167 MIC): 16 µg/mL (≈ 40.9 µM); MIC ([4]; Table 3, read-out: PA-7 MIC): 4 µg/mL (≈ 10.2 µM)
26 | CCCOc1ccc(CCC(C)(C(=O)NO)S(C)(=O)=O)cc1 (centres unmarked) [Example 237, N-hydroxy-2-methyl-2-(methylsulfonyl)-4-(4-propoxyphenyl)butanamide] | ≧64 mg/L | – | – | – | MIC ([2]; read-out: EC-1 MIC): 32 µg/mL (≈ 97.1 µM); MIC ([3]; Table 3, read-out: AB-3167 MIC): ≥ 64 µg/mL; MIC ([4]; Table 3, read-out: PA-7 MIC): 8 µg/mL (≈ 24.3 µM)
27 | CC(CCc1ccc(-c2ccccc2)nc1)(C(=O)NO)S(C)(=O)=O (centres unmarked) [Example 3, N-Hydroxy-2-methyl-2-(methylsulfonyl)-4-(6-phenylpyridin-3-yl)butanamide] | ≧64 mg/L | – | – | – | MIC ([2]; read-out: EC-1: (MIC)): 16 µg/mL (≈ 45.9 µM); MIC [3, 10]: ≥ 64 µg/mL; MIC [4, 11]: 16 µg/mL (≈ 45.9 µM)
28 | COc1ccc(-c2ccc(CCC(C)(C(=O)NO)S(C)(=O)=O)cc2)cc1F (racemic) [Example 66] | 8 µg/mL | 1 µg/mL | 16 µg/mL | 1 µg/mL | –
29 | CC(C)(O)Cc1ccc(-c2ccc(CCC(C)(C(=O)NO)S(C)(=O)=O)cc2)cc1 (centres unmarked) [Example 146] | 32 µg/mL | 8 µg/mL | ≧64 mg/L | 8 µg/mL | –
30 | CC(CCc1ccc(-c2ccc(C[C@@H](N)C(=O)O)cc2)cc1)(C(=O)NO)S(C)(=O)=O (some centres unmarked) [Example 232] | ≧64 mg/L | – | – | – | EC-1 MIC ([2]; Escherichia coli EC-1): ≧64 mg/L; AB-3167 MIC [3, 8]: ≧64 mg/L; PA-7 MIC [4, 9]: 32 µg/mL
31 | CC(CCc1ccc(OCc2cccc(OC(F)(F)F)c2)cc1)(C(=O)NO)S(C)(=O)=O (centres unmarked) [Example 274, N-hydroxy-2-methyl-2-(methylsulfonyl)-4-(4-{[3-(trifluoromethoxy)benzyl]oxy}phenyl)butanamide] | 16 µg/mL | – | – | – | MIC ([2]; read-out: EC-1 MIC): 4 µg/mL (≈ 8.67 µM); MIC ([3]; Table 3, read-out: AB-3167 MIC): 16 µg/mL (≈ 34.7 µM); MIC ([4]; Table 3, read-out: PA-7 MIC): 16 µg/mL (≈ 34.7 µM)
32 | CC(CCc1ccc(OCc2ccc(C#N)cc2)cc1)(C(=O)NO)S(C)(=O)=O (centres unmarked) [Example 233, 4-{4-[(4-cyanobenzyl)oxy]phenyl}-N-hydroxy-2-methyl-2-(methylsulfonyl)butanamide] | 16 µg/mL | – | – | – | MIC ([2]; read-out: EC-1 MIC): 4 µg/mL (≈ 9.94 µM); MIC ([3]; Table 3, read-out: AB-3167 MIC): ≥ 64 µg/mL; MIC ([4]; Table 3, read-out: PA-7 MIC): 4 µg/mL (≈ 9.94 µM)
33 | Cc1cc(OCCO)ccc1-c1ccc(CCC(C)(C(=O)NO)S(C)(=O)=O)cc1 (centres unmarked) [Example 151] | 32 µg/mL | 8 µg/mL | ≧64 mg/L | 4 µg/mL | –
34 | Cc1cc(-c2ccc(CCC(C)(C(=O)NO)S(C)(=O)=O)cc2)cnc1N(C)C (centres unmarked) [Example 37] | ≧64 mg/L | 16 µg/mL | ≧64 mg/L | 16 µg/mL | –
35 | CC(CCc1ccc(-c2cccnc2)cc1)(C(=O)NO)S(C)(=O)=O (racemic) [Example 61] | ≧64 mg/L | ≧64 mg/L | ≧64 mg/L | 16 µg/mL | –
